Data: PMC8151276, “An Integrated Approach toward NanoBRET Tracers for Analysis of GPCR Ligand Engagement” (Molecules, 2021)

Key:
RXFP2 = molecular target: T1, RXFP2 (Homo sapiens, UniProt Q8WXD0); assay: NanoBRET screen HiBiT-RXFP2 in HEK293; format: binding; settings: RXFP2
T1 construct: purchased Promega (in-house HiBiT-GPCR construct library, NanoBRET)
Procedure: (§1) Each tracer candidate was screened across the entire library of HiBiT-GPCR constructs using NanoBRET as the detection modality. As depicted in Figure 4A, the specificity of interactions was evaluated through decrease in BRET due to competitive displacement of a bound tracer by excess parental compound. Each tracer was analyzed for binding to each HiBiT-GPCR fusion in the absence and in the presence of competing parental compound. Briefly, HEK293 cells were transfected with HiBiT-GPCR constructs diluted into promoterless DNA to reduce expression and maximize translocation to the cell surface. Each tracer candidate was then screened at concentrations of 1 μM and 0.1 μM across cells expressing these fusions. Cells were treated for 1.5 h with tracer either alone or in the presence of 20 μM competing parental compound (i.e., control). BRET was measured upon addition of purified LgBiT and subsequent complementation with HiBiT genetically fused to a GPCR. The specificity of interactions was assessed through a decrease in BRET signal due to competitive displacement of the bound tracer. To further gauge the robustness of these interactions, the fold response over the control (i.e., BRETtracer/BRETcontrol) was calculated. We chose a 1.5-fold response, which translates to ≥7-fold signal over noise as the minimal threshold required to score an interaction as positive. […]. Below we highlight the screening results obtained for our exemplary fluorescent tracers based on Clozapine, Amitriptyline and AZD1283.
(§2) HiBiT-GPCR DNA constructs were diluted in 10 mM Tris pH 8 to a final concentration of 0.01 μg/μL, arrayed in 96-well plates and stored at −20 °C. For transfection, HEK293 cells were suspended in Opti-MEM (without phenol red) supplemented with 2% fetal bovine serum (Seradigm) and 100 units/mL penicillin–streptomycin (Gibco) at a final concentration of 220,000 cells/mL and dispensed into white 96-well plates at 90 μL/well. Subsequent transfections and screens were carried using an Agilent Bravo Automated Liquid Handling Platform. First, the 96-well HiBiT DNA arrays were diluted 25-fold in Opti-MEM (without serum or phenol red) to a final concentration of 0.0004 μg/μL and 20 μL of the diluted DNAs were transferred into new 96-well plates. Next, promoterless carrier DNA (1 μg/μL) was diluted 25-fold (0.04 μg/μL) and then dispensed into the diluted arrays at 20 μL/well. Following brief mixing, Viafect transfection reagent (Promega) diluted 16-fold into Opti-MEM was dispensed into the plates at 40 μL/well. After mixing by pipetting, plates were incubated for 10 min on the pipetting station deck. The DNA-transfection reagent complexes were then added to plates containing cells. To facilitate the screen, 10 μL of DNA-transfection reagent complexes were added in duplicates to the top 4 and bottom 4 rows, resulting in two identical 48-well arrays per plate. Plates with transfected cells were incubated for 18–20 h at 37 °C/5% CO2. A screen of each tracer across the entire library using two different concentrations requires duplicate plates of transfected cells. Depending on the number of tracers being screened, transfections can be scaled up using the same ratios. The next day, for each tracer, four 20× screening solutions in tracer dilution buffer (Promega) were prepared: two duplicates at final concentration of 20 μM and two duplicates at a final concentration of 2 μM. A competing unmodified compound was added to one of each duplicate at a final concentration of 400 μM. The four resulting solutions were diluted 4-fold in Opti-MEM without serum or phenol red to generate 5× solutions (5 µM and 0.5 µM tracer +/− 100 μM competing compound). To screen the library, a BioTek MultiFlo FX liquid dispenser was used to dispense 22.5 µL of tracer solution to the top 4 rows and 22.5 µL tracer + competing compound solution to the 4 bottom rows. Plates were briefly mixed on an orbital shaker and incubated for 1.5 h at room temperature. […]

BRS3 = molecular target: T2, BRS3 (Homo sapiens, UniProt P32247); assay: NanoBRET screen HiBiT-BRS3 in HEK293; format: binding; settings: BRS3
T2 construct: purchased Promega (in-house HiBiT-GPCR construct library, NanoBRET)
T2 sequence (P32247 1-399): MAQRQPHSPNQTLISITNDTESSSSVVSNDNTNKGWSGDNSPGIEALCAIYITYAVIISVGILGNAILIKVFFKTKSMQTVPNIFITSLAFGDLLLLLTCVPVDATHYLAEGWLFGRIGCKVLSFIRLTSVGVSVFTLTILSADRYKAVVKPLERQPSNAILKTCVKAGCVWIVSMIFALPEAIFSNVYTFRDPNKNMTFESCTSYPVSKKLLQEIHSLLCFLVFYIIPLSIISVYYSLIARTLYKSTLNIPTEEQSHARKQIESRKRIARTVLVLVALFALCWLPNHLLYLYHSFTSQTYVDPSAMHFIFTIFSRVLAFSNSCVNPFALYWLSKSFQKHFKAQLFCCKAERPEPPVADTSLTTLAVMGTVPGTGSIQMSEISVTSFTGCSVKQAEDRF
Procedure: as §1, §2

T1 sequence (Q8WXD0 whole entry): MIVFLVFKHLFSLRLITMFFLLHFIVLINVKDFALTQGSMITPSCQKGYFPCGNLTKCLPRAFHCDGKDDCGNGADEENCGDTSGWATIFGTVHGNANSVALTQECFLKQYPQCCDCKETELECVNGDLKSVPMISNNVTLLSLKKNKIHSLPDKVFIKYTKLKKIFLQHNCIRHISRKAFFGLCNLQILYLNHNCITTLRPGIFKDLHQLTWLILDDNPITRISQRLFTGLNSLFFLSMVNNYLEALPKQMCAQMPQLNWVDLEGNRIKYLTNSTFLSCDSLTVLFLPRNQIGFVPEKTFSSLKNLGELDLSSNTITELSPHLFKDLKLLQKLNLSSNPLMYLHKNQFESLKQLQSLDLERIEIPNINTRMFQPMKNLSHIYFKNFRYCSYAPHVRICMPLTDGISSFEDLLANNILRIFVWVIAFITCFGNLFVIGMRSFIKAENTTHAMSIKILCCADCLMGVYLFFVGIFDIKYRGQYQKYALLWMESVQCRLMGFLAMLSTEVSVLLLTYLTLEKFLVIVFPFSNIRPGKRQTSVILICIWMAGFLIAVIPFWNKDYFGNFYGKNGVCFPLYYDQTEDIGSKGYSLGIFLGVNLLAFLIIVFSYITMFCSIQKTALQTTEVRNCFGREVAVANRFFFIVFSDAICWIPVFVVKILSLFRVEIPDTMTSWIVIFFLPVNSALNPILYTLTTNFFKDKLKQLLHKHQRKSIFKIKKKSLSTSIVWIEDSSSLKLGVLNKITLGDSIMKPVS

Structure (SMILES): O=C(CCOCCOCCOCCOCCNC(=O)CCc1ccc2n1[B-](F)(F)[N+]1=C(c3ccc[nH]3)C=CC1=C2)NCCCN1CCN(C2=Nc3ccccc3Oc3ccc(Cl)cc32)CC1 [Loxapine-a-2-NB590]
- NanoBRET Fold Response (RXFP2; tracer 0.1μM): 0.94
- NanoBRET Fold Response (RXFP2; tracer 1μM): 0.64
- NanoBRET Fold Response (BRS3; tracer 0.1μM): 0.99
- NanoBRET Fold Response (BRS3; tracer 1μM): 1.20

Structure (SMILES): CCCn1c(=O)c2[nH]c(-c3ccc(OCC(=O)NCCNC(=O)CCOCCNC(=O)c4ccc(CNC(=O)CCc5ccc6n5[B-](F)(F)[N+]5=C(c7ccc[nH]7)C=CC5=C6)cc4)cc3)nc2n(CCC)c1=O [XAC-3-NB590]
- NanoBRET Fold Response (RXFP2; tracer 0.1μM): 1.20
- NanoBRET Fold Response (RXFP2; tracer 1μM): 1.28
- NanoBRET Fold Response (BRS3; tracer 0.1μM): 0.95
- NanoBRET Fold Response (BRS3; tracer 1μM): 1.04

Structure (SMILES): CCOC(=O)c1cc(C#N)c(N2CCC(C(=O)NS(=O)(=O)Cc3ccccc3/C=C/C(=O)NCCNC(=O)CCc3ccc4n3[B-](F)(F)[N+]3=C(c5ccc[nH]5)C=CC3=C4)CC2)nc1C [AZD1283-1-NB590]
- NanoBRET Fold Response (RXFP2; 0.1μM): 1.25
- NanoBRET Fold Response (RXFP2; 1μM): 1.29
- NanoBRET Fold Response (BRS3; 0.1μM): 1.10
- NanoBRET Fold Response (BRS3; 1μM): 1.02
